Test results published in PMC11313180 (International Journal of Molecular Sciences, 2024).
Read-outs that look alike come from different tables or passages of the source.

Columns and labels:
HDAC4 = target: T1, HDAC4 (Homo sapiens, UniProt P56524); test: Enzyme HDAC inhibition assay, HDAC4; format: biochemical; conditions: IC50 ± SEM; three experiments in duplicates; read-out: IC50 HDAC 4
T1 construct: purchased Reaction Biology Corp. KDA-21-279
Source text: (§4) All human recombinant enzymes were purchased from Reaction Biology Corp. (Malvern, PA, USA).

HDAC2 [1] = conditions: obtained by fitting Lechner et al. source data to a sigmoidal concentration–effect model; ref [21]; read-out: IC50 HDAC 2, Lechner et al.; cited from earlier work
HDAC6 [2] = conditions: ref [21], cited from earlier work
HDAC8 [3] = conditions: ref [21], cited from earlier work; for IC50: obtained by fitting Lechner et al. source data to a sigmoidal concentration–effect model, read-out: IC50 HDAC 8, Lechner et al.
HDAC2 [4] = target: HDAC2 (Homo sapiens, UniProt Q92769); test: Enzyme HDAC inhibition assay, HDAC2
Source text: as §4

HDAC6 [5] = target: T2, HDAC6 (Homo sapiens, UniProt Q9UBN7); test: Enzyme HDAC inhibition assay, HDAC6
T2 sequence (Q9UBN7 1-1215): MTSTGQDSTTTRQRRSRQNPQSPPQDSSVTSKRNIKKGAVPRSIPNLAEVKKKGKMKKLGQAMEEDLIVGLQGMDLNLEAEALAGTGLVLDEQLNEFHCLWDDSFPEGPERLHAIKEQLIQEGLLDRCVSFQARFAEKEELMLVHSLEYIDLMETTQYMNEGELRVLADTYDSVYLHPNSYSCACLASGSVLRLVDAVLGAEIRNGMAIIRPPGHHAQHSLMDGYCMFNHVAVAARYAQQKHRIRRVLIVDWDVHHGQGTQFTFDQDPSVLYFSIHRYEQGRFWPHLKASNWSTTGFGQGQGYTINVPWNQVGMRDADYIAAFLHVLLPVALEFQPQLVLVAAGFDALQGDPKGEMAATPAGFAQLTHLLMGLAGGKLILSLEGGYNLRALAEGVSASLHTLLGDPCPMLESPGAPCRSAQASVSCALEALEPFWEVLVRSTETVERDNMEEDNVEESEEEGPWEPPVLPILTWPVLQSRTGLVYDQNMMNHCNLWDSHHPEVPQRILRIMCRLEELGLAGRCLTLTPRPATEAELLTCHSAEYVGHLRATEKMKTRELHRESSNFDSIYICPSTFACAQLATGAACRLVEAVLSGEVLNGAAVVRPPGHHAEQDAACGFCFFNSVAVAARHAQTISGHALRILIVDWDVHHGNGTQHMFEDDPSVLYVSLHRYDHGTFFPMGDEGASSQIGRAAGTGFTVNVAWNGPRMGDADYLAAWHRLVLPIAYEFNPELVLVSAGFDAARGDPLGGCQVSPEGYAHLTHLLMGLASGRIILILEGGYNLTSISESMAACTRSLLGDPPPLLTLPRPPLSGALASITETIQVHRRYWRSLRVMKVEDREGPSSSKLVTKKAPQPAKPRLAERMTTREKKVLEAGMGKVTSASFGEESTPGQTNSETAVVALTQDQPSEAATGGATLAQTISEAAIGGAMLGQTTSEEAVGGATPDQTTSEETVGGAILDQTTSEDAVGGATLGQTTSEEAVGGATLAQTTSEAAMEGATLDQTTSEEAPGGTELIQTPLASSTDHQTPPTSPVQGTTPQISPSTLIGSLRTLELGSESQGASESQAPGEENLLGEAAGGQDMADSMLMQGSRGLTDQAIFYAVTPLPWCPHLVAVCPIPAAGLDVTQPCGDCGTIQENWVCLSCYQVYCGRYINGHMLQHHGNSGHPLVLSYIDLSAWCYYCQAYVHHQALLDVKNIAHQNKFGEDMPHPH
Source text: as §4

HDAC8 [6] = target: T3, HDAC8 (Homo sapiens, UniProt Q9BY41); test: Enzyme HDAC inhibition assay, HDAC8
T3 sequence (Q9BY41 1-377): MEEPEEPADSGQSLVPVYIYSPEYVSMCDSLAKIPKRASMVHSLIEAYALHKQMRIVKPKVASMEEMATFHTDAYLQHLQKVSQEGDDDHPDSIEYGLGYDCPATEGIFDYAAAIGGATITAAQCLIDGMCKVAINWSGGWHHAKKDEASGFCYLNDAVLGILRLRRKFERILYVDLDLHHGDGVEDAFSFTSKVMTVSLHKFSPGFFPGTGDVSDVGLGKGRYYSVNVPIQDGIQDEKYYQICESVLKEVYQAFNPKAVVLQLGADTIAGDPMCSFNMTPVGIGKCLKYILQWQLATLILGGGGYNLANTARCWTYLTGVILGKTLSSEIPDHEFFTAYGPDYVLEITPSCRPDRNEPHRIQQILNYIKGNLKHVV
Source text: as §4

[7] = tested on: class I/IIb HDAC activity in T47D cells; test: cells; format: cell-based, human; conditions: 48 h, read-out: IC50 Cellular HDAC Assay
Protocol: The cellular HDAC assay was performed based on an assay published by Heltweg and Jung and Ciossek et al.. Breast cancer cell line T-47D (12,000 c/w) was seeded in 96-well tissue culture plates (Corning, Kaiserslautern, Germany) in a total volume of 90 µL of culture medium. After 24 h, cells were incubated 48 h with increasing concentrations of a-lipoic acid. The reaction was started by adding 10 µL of 3 mM Boc-Lys(Ac)-AMC (Bachem, Bubensdorf, Switzerland) and again incubated for 3 h under cell culture conditions. […]

MCF-7 [8] = test: MTT cell viability assay, MCF-7; format: cell-based, human; conditions: 120 h; IC50 ± SEM; read-out: IC50 MCF-7, 120 h MTT assay
Protocol: (§1) MTT assays were performed as previously described. […] After incubation time, medium was replaced by MTT (solution of 5 mg/mL 3-(4,5-dimethylthiazol-2-yl)-2,5-diphenyl-tetrazoliumbromidin in phosphate buffered saline, Serva, Heidelberg, Germany).

T47D [9] = test: MTT cell viability assay, T47D; format: cell-based, human; conditions: 120 h; IC50 ± SEM; read-out: IC50 T-47D, 120 h MTT assay
Protocol: as §1

MDA-MB-231 = test: MTT cell viability assay, MDA-MB-231; format: cell-based, human; conditions: 120 h; IC50 ± SEM; read-out: IC50 MDA-MB-231, 120 h MTT assay
Protocol: MTT assays were performed as previously described. Cell numbers plated differed depending on each incubation time: MDA-MB-231 5000 c/w, MCF-7 5000 c/w (72 h) and 3000 c/w (120 h), T-47D 10,000 c/w (72 h) and 5000 c/w /120 h). After incubation time, medium was replaced by MTT (solution of 5 mg/mL 3-(4,5-dimethylthiazol-2-yl)-2,5-diphenyl-tetrazoliumbromidin in phosphate buffered saline, Serva, Heidelberg, Germany). After 10 min (MCF-7), 20 min (MDA-MB-231), and 30 min (T47D) and dissolving in DMSO (VWR, Langenfeld, Germany), absorbance was measured at 544 nm and 690 nm in a FLUOstar microplate reader (BMG LabTech, Offenburg, Germany).

[10] = tested on: caspase 3/7 in MCF-7 cells; test: Caspase 3/7 activation assay, MCF-7; format: cell-based, human; conditions: 0.5 mM or 1 mM, 24 h
Protocol: (§2) To analyze the compound-induced activation of capases 3 and 7, the CellEvent caspase 3/7 green detection reagent (Thermo Scientific, Wesel, Germany) was used according to the manufacturer’s instructions. […] After 24 h incubation, medium was removed, and cells were stained with 50 µL of CellEvent caspase 3/7 green detection reagent (2 µM in PBS supplemented with 5% heat-inactivated FBS). Cells were incubated for 30 min at 37 °C in a humidified incubator before imaging by using the Thermo Fisher ArrayScan XTI high content screening (HCS) system with a 10× magnification (Thermo Scientific). Hoechst 33342 was added for nuclei staining.

[11] = tested on: caspase 3/7 in T47D cells; test: Caspase 3/7 activation assay, T47D; format: cell-based, human; conditions: 0.5 mM or 1 mM, 24 h
Protocol: as §2

MCF-7 [12] = test: Immunoblotting, MCF-7; format: cell-based, human; conditions: 48 h
Protocol: (§3) A quantity of 20 or 40 µg of total protein as well as, from PageRuler Prestained Protein Ladder, 10–180 kDA (Thermo Scientific, Wesel, Germany), were resolved by SDS-Page (12% polyacrylamide gel) and transferred to polyvinylidene fluoride membrane (Millipore Corporation, Billerica, MA, USA). Blots were incubated with primary antibodies against acetylated a -tubulin (Cat. No. sc-23950), a -tubulin (Cat. No. sc-8035) (Santa Cruz Biotechnology, Heidelberg, Germany), acetyl histone h3 (Cat. No. 39140) and histone H3 (Cat. No. NB100-1669), ß-actine (Cat. No. sc-47778), p21 (AF1047), c-myk (Cat. No. MAB3696), APAF1 (Cat. No. MAB868), BIM (Cat. No. NBP1-76936), FOXO1 (Cat. No. C29H4), BCL-2 (Cat. No. AF810), and survivin (Cat. No. AF886). After another one-hour incubation with the appropriate HRP-conjugated secondary antibody, proteins were visualized by Intas Imager (Intas, Göttingen, Germany) using luminol reagent (Santa Cruz Biotechnology, Heidelberg, Germany).

T47D [13] = test: Immunoblotting, T47D; format: cell-based, human; conditions: 48 h
Protocol: as §3

[14] = obtained by fitting Lechner et al. source data to a sigmoidal concentration–effect model, read-out: IC50 HDAC 6, Lechner et al.

T1 sequence (P56524 whole entry): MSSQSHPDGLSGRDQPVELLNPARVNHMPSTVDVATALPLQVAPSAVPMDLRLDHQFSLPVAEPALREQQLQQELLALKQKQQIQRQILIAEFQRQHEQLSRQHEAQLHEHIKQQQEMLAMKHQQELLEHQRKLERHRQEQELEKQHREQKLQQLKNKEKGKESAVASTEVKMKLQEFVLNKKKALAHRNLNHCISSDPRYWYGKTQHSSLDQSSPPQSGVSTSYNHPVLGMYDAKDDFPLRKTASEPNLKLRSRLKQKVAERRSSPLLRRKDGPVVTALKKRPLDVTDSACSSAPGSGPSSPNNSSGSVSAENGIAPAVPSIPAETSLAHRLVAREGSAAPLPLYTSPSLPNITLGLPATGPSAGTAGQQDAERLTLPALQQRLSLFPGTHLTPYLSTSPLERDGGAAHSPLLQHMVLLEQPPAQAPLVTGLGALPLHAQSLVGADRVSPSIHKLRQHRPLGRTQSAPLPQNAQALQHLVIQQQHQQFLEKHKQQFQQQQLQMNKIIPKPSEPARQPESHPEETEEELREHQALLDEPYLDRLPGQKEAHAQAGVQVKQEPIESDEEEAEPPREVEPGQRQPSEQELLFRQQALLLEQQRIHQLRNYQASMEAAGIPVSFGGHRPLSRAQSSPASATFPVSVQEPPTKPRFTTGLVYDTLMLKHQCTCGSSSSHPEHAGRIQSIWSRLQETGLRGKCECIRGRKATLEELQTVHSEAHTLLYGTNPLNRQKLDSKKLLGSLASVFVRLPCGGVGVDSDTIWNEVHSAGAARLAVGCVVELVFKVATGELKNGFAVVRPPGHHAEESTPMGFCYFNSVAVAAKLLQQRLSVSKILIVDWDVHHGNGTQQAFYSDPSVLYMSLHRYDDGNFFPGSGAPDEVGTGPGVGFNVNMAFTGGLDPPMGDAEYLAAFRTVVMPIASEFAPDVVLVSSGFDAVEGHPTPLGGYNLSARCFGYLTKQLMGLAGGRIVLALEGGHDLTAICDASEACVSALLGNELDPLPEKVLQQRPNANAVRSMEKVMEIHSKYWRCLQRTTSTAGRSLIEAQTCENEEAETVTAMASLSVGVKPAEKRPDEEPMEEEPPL
Sequence of HDAC2 (Homo sapiens, UniProt Q92769) (Q92769 whole entry): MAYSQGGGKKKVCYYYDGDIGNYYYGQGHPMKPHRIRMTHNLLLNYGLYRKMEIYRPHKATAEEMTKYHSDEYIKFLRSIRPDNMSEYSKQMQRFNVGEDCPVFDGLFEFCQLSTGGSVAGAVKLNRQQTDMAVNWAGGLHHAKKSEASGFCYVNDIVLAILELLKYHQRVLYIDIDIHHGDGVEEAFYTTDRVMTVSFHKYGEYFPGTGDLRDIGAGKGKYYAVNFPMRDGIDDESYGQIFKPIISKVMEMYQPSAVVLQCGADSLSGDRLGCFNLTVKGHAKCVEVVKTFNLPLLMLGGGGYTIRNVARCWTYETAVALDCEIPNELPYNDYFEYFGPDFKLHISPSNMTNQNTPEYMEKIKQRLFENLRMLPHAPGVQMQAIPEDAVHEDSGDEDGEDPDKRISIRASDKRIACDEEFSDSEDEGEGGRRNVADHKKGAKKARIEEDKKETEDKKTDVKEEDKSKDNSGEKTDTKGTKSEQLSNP

Q: For `O=C(O)CCCCC(S)CCS` (racemic), which IC50 (HDAC4) is on record?
A: 177 ± 17.5 µM

Q: And the IC50 (HDAC2 [1])?
A: 27.9 µM

Q: What about the IC50 (HDAC6 [2]; [14]) of the same compound?
A: 1.7 µM

Q: And the “more active than rac-α-lipoic acid at HDAC6, Lechner et al.'s study” value (HDAC6 [2])?
A: around 100 fold

Q: What about the IC50 (HDAC6 [2]; read-out: IC50 at HDAC6 as reported by Lechner et al.) of the same compound?
A: ~1 µM

Q: And the IC50 (HDAC8 [3])?
A: 22.3 µM

Q: What about the “more active than rac-α-lipoic acid at HDAC8, Lechner et al.'s study” value (HDAC8 [3]) of the same compound?
A: at least 5 fold

Q: What about the IC50 (HDAC2 [4]) of the same compound?
A: 98.1 ± 35.6 µM

Q: What about the IC50 (HDAC6 [5]) of the same compound?
A: 6.48 ± 2.11 µM

Q: And the “HDAC6 preference (selectivity for HDAC6)” value (HDAC6 [5]; versus HDAC2, 4 and 8, from Table 1)?
A: 8 fold

Q: And the IC50 (HDAC8 [6])?
A: 51.5 ± 10.5 µM

Q: With `O=C(CCCCCCC(=O)Nc1ccccc1)NO` [vorinostat] as the compound, how does the IC50 ([7]; Homo sapiens, T47D) read?
A: 0.79 ± 0.07 µM

Q: Which results are given for `O=C(O)CCCCC1CCSS1` (racemic) [rac-α-lipoic acid]?
A: IC50 (HDAC4): 262 ± 37.8 µM; IC50 ([7]; T47D cells, substrate Boc-Lys-AC-AMC, IC50 ± SEM, one experiment in triplicates): 1190 ± 67 µM; IC50 (MCF-7 [8]): 454 ± 15.2 µM; IC50 (T47D [9]): 373 ± 13.9 µM; IC50 (MDA-MB-231): 275 ± 22.5 µM; IC50 (HDAC2 [1]): 391 µM; IC50 (HDAC6 [2]; [14]): 191 µM; IC50 (HDAC8 [3]): 109 µM; IC50 (HDAC2 [4]; read-out: IC50 HDAC 2, IC50 ± SEM, three experiments in duplicates): 208 ± 4.2 µM; IC50 (HDAC6 [5]; read-out: IC50 HDAC 6, IC50 ± SEM, three experiments in duplicates): 15.3 ± 4.6 µM; IC50 (HDAC8 [6]; read-out: IC50 HDAC 8, IC50 ± SEM, three experiments in duplicates): 464 ± 83 µM

Q: Which results are given for `O=C(O)CCCCC1CCSS1` (stereo not drawn) [α-lipoic acid]?
A: caspase activation, MCF-7 [10]: 5–15%; caspase activation, T47D [11]: 5–15%; expression of BCL-2, MCF-7 (MCF-7 [12]): loss or massive reduction in expression; expression of BCL-2, T47D (T47D [13]): loss or massive reduction in expression
